Source: EP0394118B1, “2,6-Aminoheptanedioic acid unsaturated derivatives, process for their preparation and their use as medicaments” (ROUSSEL-UCLAF, priority 1989, dated 1990)

Columns and labels:
Assay in all cases: Antibacterial activity in vitro, agar diffusion method in Davis Mingioli medium
Assay type in all cases: cell-based
[1] = system: Enterobacter cloacae 1321E; details: 100 mg/l aqueous solution in 9 mm wells, incubation 24 h at 37°C, read-out: zones d'inhibition (diamètre en mm)
Method: (§1) L'activité antibactérienne des produits revendiqués a été déterminée par la méthode de diffusion en milieu de Davis Mingioli additionné de 1% d'agar. Les géloses utilisées sont coulées en boîtes de Petri à 48°C, après ensemencement à […] au moyen de la souche bactérienne test. Les inocula proviennent d'une pré-culture de 24 heures en bouillon de Davis Mingioli. Après durcissement des géloses, les solutions aqueuses des produits étudiés sont introduites dans des puits (9 mm) creusés dans le milieu à l'aide d'un emporte-pièce. Les zones d'inhibition observées (diamètre en mm) sont mesurées après incubation de 24 heures à 37°C.

Escherichia Coli 078 = details: COLI078, 100 mg/l aqueous solution in 9 mm wells, incubation 24 h at 37°C, read-out: zones d'inhibition (diamètre en mm)
Method: as §1

Providencia sp. DU48 = details: 100 mg/l aqueous solution in 9 mm wells, incubation 24 h at 37°C, read-out: zones d'inhibition (diamètre en mm)
Method: as §1

[2] = system: Salmonella typhimurium MZ11; details: Salmonella enterica, 100 mg/l aqueous solution in 9 mm wells, incubation 24 h at 37°C, read-out: zones d'inhibition (diamètre en mm)
Method: as §1

Row | Compound | zone of inhibition at 100 µg/mL [1] | zone of inhibition at 100 µg/mL (Escherichia Coli 078) | zone of inhibition at 100 µg/mL (Providencia sp. DU48) | zone of inhibition at 100 µg/mL [2]
1 | C=CC(N)(CC(=C)CC(N)C(=O)O)C(=O)O (stereo not drawn) [exemple 4, Acide 2,6-diamino 2-éthényl 4-méthylène heptanedioïque] | 26 mm | 17.5 mm | 29 mm | 31 mm
2 | C=C(CC(N)C(=O)O)CC(N)(CC)C(=O)O (stereo not drawn) [exemple 7, Acide 2,6-diamino 2-éthyl 4-méthylène heptanedioïque] | 29 mm | 18 mm | 28 mm | 34 mm
3 | C#CC(N)(CC(=C)CC(NCc1ccccc1)C(=O)O)C(=O)O (stereo not drawn) [exemple 10, Acide 2-amino 2-éthynyl 4-méthylène 6-[(phénylméthyl)amino] heptanedioïque] | – | – | – | 19 mm
